The text below walks through data of US20040063770A1, “Method for treating Alzheimer's disease” (Warner-Lambert Company, priority 2000, published 2004).

In one assay the test system is Aβ secretion from CHO cells transfected with Swedish mutation Amyloid Precursor Protein (CHO-APPsw). The assay can be described thus: Aβ secretion inhibition in CHO-APPsw cells, sandwich ELISA. Format: cell-based. To be noted: CHO, read-out: Effect on Aβ Secretion (Concentration) (IC50). As to the method: This is an […] assay designed to show the ability of test compounds to […]. CHO cells transfected with human AβPP bearing the Swedish mutation AβPP(CHO-AβPPsw) were treated with a farnesyl transferase inhibitor (FTI) (e.g., compounds from Table 1). The assay was carried out as follows:
CHO cells transfected with Swedish mutation Amyloid Precursor Protein (CHO-APPsw) were maintained in Dulbecco's Modified Eagle Medium (DMEM) media supplemented with nonessential amino acids (NEAA, Gibco-BRL Company) and 10% (v/v) heat inactivated Fetal Calf Serum (Hyclone Company), penicillin and streptomycin (Gibco-BRL).
The polyclonal antibodies were purified on a protein G-Sepharose column prior to use. Biotinylated monoclonal antibody 4G8 which recognizes amino acids 17-24 of Aβ (Senetek plc, St. Louis, Mo., USA) was used as the detection antibody. Alkaline phosphatase-conjugated strepavidin (Zymed Laboratories, San Francisco, Calif., USA) was used to bind the biotinylated detection antibody followed by Attophos (JBL Scientific, St. Luis Obispo, Calif., USA), the substrate for alkaline phosphatase. Fluorescence was measured using a Cytofluor plate reader (Perseptive Biosystems, Framingham, Mass., USA) set at 450 nm excitation and 560 emission. Synthetic Aβ40 and Aβ42 peptides used for standard curves were purchased from California Peptide (Napa, Calif., USA).
(In an ELISA, binding on a coated surface is turned into a signal by an enzyme label.)
On to `O=C1CCCc2c1ccc(O[C@H](Cn1ccnc1)c1ccccc1)c2CCc1ccccc1` [Compound 1, (S) 6-(2-Imidazol-1-yl-1-phenyl-ethoxy)-5-phenethyl-3,4-dihydro-2H-naphthalen-1-one], for which the IC50 stood at 0.7 µM.
The same measure, in the same setting: then `O=C1CCCc2c1ccc(OCCc1cncn1Cc1ccccc1)c2CCc1ccccc1` [Compound 15, 6-[2-(3-Benzyl-3H-imidazol-4-yl)-ethoxy]-5-phenethyl-3,4-dihydro-2H -naphthalen-1-one; trifluoro-acetate], with 1.5 µM; and `O=C1CCCc2c1ccc(O[C@H](Cn1ccnc1)c1ccccc1)c2CCc1ccc(F)cc1` [Compound 9, (S) 6-(2-Imidazol-1-yl-1-phenyl-ethoxy)-5-[2-(4-fluorophenyl)ethyl]-3,4-dihydro-2H-naphthalen-1-one], with 4.5 µM; and `O=C1CCCc2c1ccc(O[C@H](Cn1ccnc1)c1ccccc1)c2CCc1ccccn1` [Compound 12, (S) 6-(2-Imidazol-1-yl-1-phenyl-ethoxy)-5-(2-pyridin-2-yl-ethyl)-3,4-dihydro-2H-naphthalen-1-one], with 12 µM.
With `CC(C)OCc1c(OC(Cn2ccnc2)c2ccccc2)ccc2c1CCCC2=O` (centres unmarked) [Compound 7, 6-(2-Imidazol-1-yl-1-phenyl-ethoxy)-5-isopropoxymethyl-3,4-dihydro-2H-naphthalen-1-one], the IC50 was 37.9 µM.
`O=C1CCCc2cc(O[C@@H](Cn3ccnc3)c3ccccc3)ccc21` [Compound 5, (R) 6-(2-Imidazol-1-yl-1-phenyl-ethoxy)-3,4-dihydro-2H-naphthalen-1-one]: the IC50 amounted to 1.5 µM.
The same measure, in the same setting: with `O=C1CCCc2c1ccc(O[C@H](Cn1ccnc1)c1ccccc1)c2CS(=O)(=O)c1ccccc1` [Compound 10, (S) 5-Benzenesulfonylmethyl-6-(2-imidazol-1-yl-1-phenyl-ethoxy)-3,4-dihydro-2H-naphthalen-1-one] the figure was 25.4 µM; with `O=C1CCCc2c1ccc(OC(Cn1ccnc1)c1ccccc1)c2CCc1ccncc1` (centres unmarked) [Compound 13, 6-(2-Imidazol-1-yl-1-phenyl-ethoxy)-5-(2-pyridin-4-yl-ethyl)-3,4-dihydro-2H-naphthalen-1-one], 11 µM; with `O=C1CCCc2c1ccc(O[C@H](Cn1ccnc1)c1ccccc1)c2CNc1ccccc1` [Compound 8, (S) 6-(2-Imidazol-1-yl-1-phenyl-ethoxy)-5-phenylaminomethyl-3,4-dihydro-2H-naphthalen-1-one], 7.6 µM.

The same assay, now with this note: CHO-APPsw cells, serum free media overnight at 37° C., secreted Aβ by sandwich ELISA; read-out: Effect on Aβ Secretion (Concentration) (IC50).
For the compound `O=C1/C(=C/c2cccs2)CCc2cc(OC(Cn3ccnc3)c3ccccc3)ccc21` (racemic) [Compound 3, E-(+/−)6-(2-Imidazol-1-yl-1-phenyl-ethoxy)-2-thiophen-2-ylmethylene-3,4-dihydro-2H-naphthalen-1-one], the IC50 turned out to be 4.5 µM.
On the same count and under the same terms, then `CC(C)(CNC(=O)CN(Cc1ccc(OCc2ccccc2)cc1)C(=O)[C@H](Cc1cnc[nH]1)NC(=O)OCc1ccccc1)c1ccccc1` [Compound 16, (S) [1-{(4-Benzyloxy-benzyl)-[(2-methyl-2-phenyl-propycarbamoyl)-methyl]-carbamoyl}-2-(3H-imidazol-4-yl)-ethyl]-carbamic acid benzyl ester], with 50 µM.
For `O=C(CN(Cc1ccc(OCc2ccccc2)cc1)C(=O)[C@H](Cc1c[nH]cn1)NC(=O)OCc1ccccc1)NCCOCc1ccccc1` [Compound 19, (S) [1-{(4-Benzyloxy-benzyl)-[(2-benzyloxy-ethylcarbamoyl)-methyl]-carbamoyl}-2-(1H-imidazol-4-yl)ethyl]-carbamic acid benzyl ester], the IC50 came out at 10 µM.
The same measure, in the same setting: then `Cc1ccc(CN(CC(=O)NCC2(c3ccccc3)CCC2)C(=O)[C@H](Cc2c[nH]cn2)NC(=O)OCc2ccccc2)cc1` [Compound 17, (S) [2-(1H-Imidazol-4-yl)-1-((4-methyl-benzyl)-{[(1-phenyl-cyclobutylmethyl)-carbamoyl]-methyl}-carbamoyl)-ethyl]-carbamic acid benzyl ester], with 10 µM; and `O=C1CCCc2cc(OC(Cn3ccnc3)c3ccc(Cl)cc3)ccc21` (racemic) [Compound 4, 6-[1-(4-Chloro-phenyl)-2-imidazol-1-yl-ethoxy]-3,4-dihydro-2H-napththalen-1-one racemic], with 25 µM.
Still for that read-out and setting: then `O=C1CCC(c2ccccc2)c2cc(OC(Cn3ccnc3)c3ccccc3)ccc21` (racemic) [Compound 6, 6-(2-Imidazol-1-yl-1-phenyl-ethoxy)-4-phenyl-3,4-dihydro-2H-naphthalen-1-one racemic], with 3.1 µM; and `O=C1CCCc2c1ccc(S[C@H](Cn1ccnc1)c1ccccc1)c2CCc1ccccc1` [Compound 11, (S) 6-(2-Imidazol-1-yl-1-phenyl-ethylsulfanyl)-5-phenethyl-3,4-dihydro-2H-naphthalen-1-one], with 1.5 µM.
Still for that read-out and setting: then `CN1C(=O)CC(c2cccc(Cl)c2)c2cc(C(Nc3cncn3C)c3ccc(Cl)cc3)ccc21` (centres unmarked) [Compound 18, 1-Methyl-4-(3-chlorophenyl)-6-[(4-chlorophenyl)-(1-methylimidazol-5-yl)aminomethyl]-2,3-dihydroquinolin-2-one], with 6 µM; and `O=C(O)CCC(Oc1ccc2c(c1CCc1ccccc1)CCCC2=O)c1ccccc1` (centres unmarked) [Compound 14, 4-(5-Oxo-1-phenethyl-5,6,7,8-tetrahydro-naphthalen-2-yloxy)-4-phenyl-butyric acid], with 13.8 µM; and `O=C1CCCc2cc(OCCc3c[nH]cn3)ccc21` [Compound 2, 6-[2-(1H-Imidazol-4-yl)-ethoxy]-3,4-dihydro-2H-naphthalen-1-one], with 7.6 µM.

The assay is the same for the next values; noted with them: transfected CHO cells treated with 10 μM compound.
With `O=C1CCCc2c1ccc(O[C@H](Cn1ccnc1)c1ccccc1)c2CCc1ccccc1` [Compound 1, (S) 6-(2-Imidazol-1-yl-1-phenyl-ethoxy)-5-phenethyl-3,4-dihydro-2H-naphthalen-1-one], the “fold decrease in secreted Aβ” value amounted to 6.5 fold.
